Patent US4385058A, “Pyrimidone derivatives” (Smith Kline & French Laboratories Limited, priority 1980, dated 1983)

System: histamine H2 -receptors
Test: Inhibition of histamine-stimulated acid secretion in the Heidenhain pouch dog
Assay type: in vivo
Details: intravenous administration; dose levels adjusted to produce similar peak responses
Description: Heidenhain pouch dogs can be prepared and used as described in European Specification No. 15138.

For `Cc1ccc(Cc2cnc(NCCSCc3cc(CN(C)C)ccn3)[nH]c2=O)cn1` [Example 1, 2-[2-(4-dimethylaminomethyl-2-pyridylmethylthio)ethylamino]-5-(6-methyl-3-pyridylmethyl)-4-pyrimidone], which “duration of activity versus cimetidine” value is on record?
The value was “longer duration of activity than cimetidine”.
